Measured values taken from patent US20260138976A1 (Hoffmann-La Roche Inc., priority 2022, published 2026).
Read-outs that look alike come from different tables or passages of the source.

Experiments:
DGK α kinase = molecular target: T1, DGK α kinase (Homo sapiens, UniProt P23743); test: DGKalpha kinase ADP Glo assay run by Reaction Biology Corp.; type: biochemical; conditions: 2 nM kinase, 50 µM ATP, 500 μM DLG, 10-dose duplicate
T1 construct: purchased Reaction Biology Corp. (contract assay service)
Procedure: (§1) DGK α and ζ kinases use ATP to phosphorylate the substrate 1,2-dilauroyl-sn-glycerol (DLG). ATP is converted to ADP as a result of this enzymatic reaction.
(§2) After the kinase reaction, an ATP-depletion reagent is added to terminate the kinase reaction and deplete any remaining ATP, leaving only ADP. Second, a detection reagent is added to simultaneously convert ADP to ATP and allow the newly synthesized ATP to be converted to light using a coupled luciferase/luciferin reaction.
(§3) DGK α and ζ kinase ADP Glo assays were ran by Reaction Biology Corp., 1 Great Valley Parkway, Suite 2, Malvern, 19355, PA, USA. Information provided by the service provider are the following: DGK α and ζ kinases were used at 2 nM final concentration. Reactions were carried out at 50 µM ATP. 500 μM of the substrate DLG (Dilauroyl-sn-glycerol) was used.

DGK ζ kinase = molecular target: T2, DGK ζ kinase (Homo sapiens, UniProt Q13574); test: DGKzeta kinase ADP Glo assay run by Reaction Biology Corp.; type: biochemical; conditions: 2 nM kinase, 50 µM ATP, 500 μM DLG, 10-dose duplicate
T2 construct: purchased Reaction Biology Corp. (contract assay service)
Procedure: as §1, §2, §3

primary human T-cells = test: IL2 secretion measurements (24 h, CD3-stimulated T-cells, PBS counter screen); type: cell-based; conditions: for Emax IL2 (% activation): CD3 condition, normalised to DMSO (neutral) and 20 μM reference compound A1 = 100%; for EC50: CD3-stimulated primary human T-cells, IL2 secretion, fitted sigmoidal curve, read-out: Tcell IL2 CD3 EC50
How it was run: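 Expanded primary human T-cells (100k/well) were plated on anti-CD3-coated or PBS-only plates with compound in a 5–6 point dose response (top 20 or 10 μM final, 3.333-fold, 0.2% DMSO). IL-2 in 24 h supernatants was quantified by ProQuantum immunoassay or ELISA. Values were normalized to DMSO and 20 μM reference compound A1 (100%), giving EC50 and Emax.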

T2 sequence (Q13574 whole entry): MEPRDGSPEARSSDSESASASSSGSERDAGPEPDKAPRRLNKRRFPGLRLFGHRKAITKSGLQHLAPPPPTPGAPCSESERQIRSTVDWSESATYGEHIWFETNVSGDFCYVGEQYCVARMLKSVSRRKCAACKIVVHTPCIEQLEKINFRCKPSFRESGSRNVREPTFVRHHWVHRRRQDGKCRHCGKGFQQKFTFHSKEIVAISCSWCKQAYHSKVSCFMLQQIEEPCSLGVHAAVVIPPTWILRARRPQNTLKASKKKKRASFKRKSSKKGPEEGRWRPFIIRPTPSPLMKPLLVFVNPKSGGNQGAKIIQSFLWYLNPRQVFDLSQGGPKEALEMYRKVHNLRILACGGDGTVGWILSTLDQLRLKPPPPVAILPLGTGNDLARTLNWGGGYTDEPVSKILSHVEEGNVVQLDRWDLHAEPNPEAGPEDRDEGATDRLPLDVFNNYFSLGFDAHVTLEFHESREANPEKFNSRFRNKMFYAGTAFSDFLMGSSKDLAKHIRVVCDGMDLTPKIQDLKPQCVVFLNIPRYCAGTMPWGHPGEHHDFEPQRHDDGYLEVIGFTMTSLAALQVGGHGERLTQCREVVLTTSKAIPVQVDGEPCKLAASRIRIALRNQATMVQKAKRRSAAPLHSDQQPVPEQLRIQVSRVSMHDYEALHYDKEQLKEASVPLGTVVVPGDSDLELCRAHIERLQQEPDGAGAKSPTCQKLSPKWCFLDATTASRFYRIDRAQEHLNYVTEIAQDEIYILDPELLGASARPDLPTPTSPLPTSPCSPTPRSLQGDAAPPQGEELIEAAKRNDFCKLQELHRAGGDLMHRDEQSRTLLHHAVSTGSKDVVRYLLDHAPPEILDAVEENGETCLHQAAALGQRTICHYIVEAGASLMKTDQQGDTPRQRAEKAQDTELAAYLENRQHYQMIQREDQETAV
T1 sequence (P23743 whole entry): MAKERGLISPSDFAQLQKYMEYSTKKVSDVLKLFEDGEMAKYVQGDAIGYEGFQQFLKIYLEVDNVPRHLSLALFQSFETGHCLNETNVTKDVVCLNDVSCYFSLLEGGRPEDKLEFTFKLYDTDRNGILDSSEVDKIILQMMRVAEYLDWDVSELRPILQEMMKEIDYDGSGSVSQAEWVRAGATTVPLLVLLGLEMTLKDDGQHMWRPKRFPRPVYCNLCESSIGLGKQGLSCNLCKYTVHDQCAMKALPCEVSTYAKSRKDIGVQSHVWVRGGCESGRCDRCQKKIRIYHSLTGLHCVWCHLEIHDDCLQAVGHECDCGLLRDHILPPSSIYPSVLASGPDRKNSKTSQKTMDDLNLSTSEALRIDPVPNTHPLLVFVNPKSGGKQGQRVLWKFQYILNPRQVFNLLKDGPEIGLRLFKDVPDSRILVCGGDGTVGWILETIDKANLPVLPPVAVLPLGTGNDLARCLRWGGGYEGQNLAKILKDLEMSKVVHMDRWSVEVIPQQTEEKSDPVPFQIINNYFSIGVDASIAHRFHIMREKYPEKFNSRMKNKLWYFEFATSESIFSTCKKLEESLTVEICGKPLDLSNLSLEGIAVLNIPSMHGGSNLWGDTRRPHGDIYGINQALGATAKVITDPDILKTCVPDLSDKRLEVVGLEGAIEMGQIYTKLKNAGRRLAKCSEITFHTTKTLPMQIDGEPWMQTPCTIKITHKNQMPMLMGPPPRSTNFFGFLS

Structure (SMILES) | IC50 (DGK α kinase) | IC50 (DGK ζ kinase) | Emax IL2 (% activation) (primary human T-cells) | EC50 (primary human T-cells; Homo sapiens, T-cell) | EC50 (primary human T-cells)
CC(C)(C)c1nnc(-c2ccc3c(c2)N(Cc2ccc(-c4nnc(C(F)(F)F)o4)cc2)C(=O)[C@@H](N)CS3(=O)=O)o1 [Example 24, (3R)-3-amino-7-(5-tert-butyl-1,3,4-oxadiazol-2-yl)-1,1-dioxo-5-[[4-[5-(trifluoromethyl)-1,3,4-oxadiazol-2-yl]phenyl]methyl]-2,3-dihydro-1λ^6,5-benzothiazepin-4-one] | 282 nM | 510 nM | 131 % activation | 1060 nM | 
CC(N)(c1nnc(-c2ccc3c(c2)N(Cc2ccc(-c4noc(C(F)(F)F)n4)cc2)C(=O)[C@@H](N)CS3(=O)=O)o1)C(F)(F)F (stereo partly drawn) [Example 32, (3R)-3-amino-7-[5-(1-amino-2,2,2-trifluoro-1-methyl-ethyl)-1,3,4-oxadiazol-2-yl]-1,1-dioxo-5-[[4-[5-(trifluoromethyl)-1,2,4-oxadiazol-3-yl]phenyl]methyl]-2,3-dihydro-1λ^6,5-benzothiazepin-4-one] | 173 nM | 128 nM | 321 % activation | 1920 nM | 
N[C@H]1CS(=O)(=O)c2ccc(-c3nnc(C4(C5CC5)CCCO4)o3)cc2N(Cc2ccc(-c3noc(C(F)(F)F)n3)cc2)C1=O (stereo partly drawn) [Example 36, (3R)-3-amino-7-[5-(2-cyclopropyl-tetrahydrofuran-2-yl)-1,3,4-oxadiazol-2-yl]-1,1-dioxo-5-[[4-[5-(trifluoromethyl)-1,2,4-oxadiazol-3-yl]phenyl]methyl]-2,3-dihydro-1λ^6,5-benzothiazepin-4-one] | 58.5 nM | 50.7 nM | 223 % activation | 616 nM | 
N[C@H]1CS(=O)(=O)c2ccc(-c3nnc(C4(N)CCCCC4)o3)cc2N(Cc2ccc(-c3noc(C(F)(F)F)n3)cc2)C1=O [Example 39, (3R)-3-amino-7-[5-(1-aminocyclohexyl)-1,3,4-oxadiazol-2-yl]-1,1-dioxo-5-[[4-[5-(trifluoromethyl)-1,2,4-oxadiazol-3-yl]phenyl]methyl]-2,3-dihydro-1λ^6,5-benzothiazepin-4-one] | 94.6 nM | 56.4 nM | 143 % activation | 622 nM | 
C[C@@](N)(c1nnc(-c2ccc3c(c2)N(Cc2ccc(-c4ccc(OC(F)(F)F)cn4)cc2)C(=O)[C@@H](N)CS3(=O)=O)o1)C(F)(F)F [Example 153, (3R)-3-amino-7-[5-[(1R)-1-amino-2,2,2-trifluoro-1-methyl-ethyl]-1,3,4-oxadiazol-2-yl]-1,1-dioxo-5-[[4-[5-(trifluoromethoxy)-2-pyridyl]phenyl]methyl]-2,3-dihydro-1λ^6,5-benzothiazepin-4-one] |  |  | 193 % activation | 245 nM | 
C[C@@](N)(c1nnc(-c2ccc3c(c2)N(Cc2ccc(-c4ccc(C(F)(F)F)cn4)cc2)C(=O)[C@@H](N)CS3(=O)=O)o1)C(F)(F)F [Example 154, (3R)-3-amino-7-[5-[(1R)-1-amino-2,2,2-trifluoro-1-methyl-ethyl]-1,3,4-oxadiazol-2-yl]-1,1-dioxo-5-[[4-[5-(trifluoromethyl)-2-pyridyl]phenyl]methyl]-2,3-dihydro-1λ^6,5-benzothiazepin-4-one] |  |  | 127 % activation | 991 nM | 
C[C@@](N)(c1nnc(-c2ccc3c(c2)N(Cc2ccc(-n4nnc(C(F)(F)F)n4)cc2)C(=O)[C@@H](N)CS3(=O)=O)o1)C(F)(F)F [Example 156, (3R)-3-amino-7-[5-[(1R)-1-amino-2,2,2-trifluoro-1-methyl-ethyl]-1,3,4-oxadiazol-2-yl]-1,1-dioxo-5-[[4-[5-(trifluoromethyl)tetrazo 1-2-yl]phenyl]methyl]-2,3-dihydro-1λ^6,5-benzothiazepin-4-one] |  |  | 554 % activation | 2110 nM | 
COC(=O)N1CC2CC(c3nnc(-c4ccc5c(c4)N(Cc4ccc(-c6noc(C(F)(F)F)n6)cc4)C(=O)[C@@H](N)CS5(=O)=O)o3)(C2)C1 [Example 158, methyl 1-[5-[(3R)-3-amino-1,1,4-trioxo-5-[[4-[5-(trifluoromethyl)-1,2,4-oxadiazol-3-yl]phenyl]methyl]-2,3-dihydro-1λ^6,5-benzothiazepin-7-yl]-1,3,4-oxadiazol-2-yl]-3-azabicyclo[3.1.1]heptane-3-carboxylate] |  |  | 345 % activation |  | 1340 nM
N[C@H]1CS(=O)(=O)c2ccc(-c3nnc(N4CCC(F)(F)CC4)o3)cc2N(Cc2ccc(-c3ccc(C(F)(F)F)cn3)cc2)C1=O [Example 160] |  |  | 55 % activation | 6430 nM | 
N[C@H]1CS(=O)(=O)c2ccc(-c3nnc(N4CCC(F)(F)CC4)o3)cc2N(Cc2ccc(-n3ccc(C(F)(F)F)n3)cc2)C1=O [Example 162, (3R)-3-amino-7-[5-(4,4-difluoro-1-piperidyl)-1,3,4-oxadiazol-2-yl]-1,1-dioxo-5-[[4-[3-(trifluoromethyl)pyrazol-1-yl]phenyl]methyl]-2,3-dihydro-1λ^6,5-benzothiazepin-4-one] |  |  | 185 % activation | 1410 nM | 
CC(C)(c1nnc(-c2ccc3c(c2)N(Cc2ccc(-c4ccc(OC(F)(F)F)cn4)cc2)C(=O)[C@@H](N)CS3(=O)=O)o1)C(F)(F)F [Example 165, (3R)-3-amino-1,1-dioxo-7-[5-(2,2,2-trifluoro-1,1-dimethyl-ethyl)-1,3,4-oxadiazol-2-yl]-5-[[4-[5-(trifluoromethoxy)-2-pyridyl]phenyl]methyl]-2,3-dihydro-1λ^6,5-benzothiazepin-4-one] |  |  | 123 % activation | 1330 nM | 
N[C@H]1CS(=O)(=O)c2ccc(-c3nnc(C(F)C(F)(F)F)o3)cc2N(Cc2ccc(-c3noc(C4CC4)n3)cc2)C1=O (stereo partly drawn) [Example 168, (3R)-3-amino-5-[[4-(5-cyclopropyl-1,2,4-oxadiazol-3-yl)phenyl]methyl]-1,1-dioxo-7-[5-(1,2,2,2-tetrafluoroethyl)-1,3,4-oxadiazol-2-yl]-2,3-dihydro-1λ^6,5-benzothiazepin-4-one] |  |  | 67 % activation | 4870 nM | 
CC(O)(c1nnc(-c2ccc3c(c2)N(Cc2ccc(-c4noc(C5CC5)n4)cc2)C(=O)[C@@H](N)CS3(=O)=O)o1)C(F)(F)F (stereo partly shown) [Example 170] |  |  | 79 % activation | 8550 nM | 
N[C@H]1CS(=O)(=O)c2ccc(-c3nnc(C(N)(C4CC4)C(F)(F)F)o3)cc2N(Cc2ccc(-c3noc(C4CC4)n3)cc2)C1=O (stereo partly shown) [Example 171] |  |  | 122 % activation | 3780 nM | 
N#CC1(c2nnc(-c3ccc4c(c3)N(Cc3ccc(-c5ccc(OC(F)(F)F)cn5)cc3)C(=O)[C@@H](N)CS4(=O)=O)o2)CCC1 [Example 172, 1-[5-[(3R)-3-amino-1,1,4-trioxo-5-[[4-[5-(trifluoromethoxy)-2-pyridyl]phenyl]methyl]-2,3-dihydro-1λ^6,5-benzothiazepin-7-yl]-1,3,4-oxadiazol-2-yl]cyclobutanecarbonitrile] |  |  | 120 % activation | 1090 nM | 
CC(C)(CC#N)c1nnc(-c2ccc3c(c2)N(Cc2ccc(-c4ccc(OC(F)(F)F)cn4)cc2)C(=O)[C@@H](N)CS3(=O)=O)o1 [Example 175, 3-[5-[(3R)-3-amino-1,1,4-trioxo-5-[[4-[5-(trifluoromethoxy)-2-pyridyl]phenyl]methyl]-2,3-dihydro-1λ^6,5-benzothiazepin-7-yl]-1,3,4-oxadiazol-2-yl]-3-methyl-butanenitrile] |  |  | 52 % activation | > 10000 nM | 
